Source: ChEMBL document CHEMBL1201862, “PubChem BioAssay data set” (2004)
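Results reflect a 48-hour exposure of cells in 96-well plates to compound at five concentrations. The concentration for 50% growth inhibition is given as GI50.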 Activity calls are given as the source filed them. Rule as the data show it: active = GI50 up to about 1.1 µM and inactive = higher.

Key:
Test in all cases: NCI-60 cell line screen, 48 h
MDA-N = system: MDA-N
SNB-78 = system: SNB-78
HOP-18 = system: HOP-18
DMS-114 = system: DMS-114
LXFL 529 = system: LXFL 529
M19-MEL = system: M19-MEL
DMS-273 = system: DMS-273
XF498 = system: XF498
RXF 631 = system: RXF 631

In the case of O=C1C=C(Nc2cccnc2)c2ccccc2/C1=N/O, the GI50 (MDA-N) is reported as 12.6 µM (inactive).

With COc1c(C)c(O)c2c(c1C)OC(c1ccccc1)CC2=O (stereo not drawn) the GI50 (SNB-78) was > 100 µM (inactive), the GI50 (HOP-18) was 25 µM (inactive) and the GI50 (DMS-114) was 40.8 µM (inactive). The GI50 (LXFL 529) was 35.2 µM (inactive), the GI50 (M19-MEL) was 38.1 µM (inactive) and the GI50 (DMS-273) was 59.6 µM (inactive).

CCOC(=O)Cc1nc2nn(Cc3ccccc3)cc2c(=O)[nH]1 was tested, and the GI50 (MDA-N) was > 100 µM (inactive).

CC1=C2CCCC2C/C(=N/Nc2ccc([N+](=O)[O-])cc2[N+](=O)[O-])CC1 (stereo not drawn) was tested, and the GI50 (XF498) was > 100 µM (inactive), the GI50 (HOP-18) was > 100 µM (inactive) and the GI50 (DMS-114) was > 100 µM (inactive). The GI50 (LXFL 529) was > 100 µM (inactive), the GI50 (RXF 631) was > 100 µM (inactive) and the GI50 (M19-MEL) was > 100 µM (inactive). The GI50 (DMS-273) was > 100 µM (inactive).

For C=C[C@H]1C=Cc2c(OC)cccc2[C@@H]1COP1(=S)NC(C)C(c2ccccc2)O1 (stereo partly drawn), the GI50 (SNB-78) was > 100 µM (inactive), the GI50 (XF498) was > 100 µM (inactive) and the GI50 (HOP-18) was > 100 µM (inactive). The GI50 (DMS-114) was 32.9 µM (inactive), the GI50 (LXFL 529) was 48.5 µM (inactive) and the GI50 (M19-MEL) was 75 µM (inactive). The GI50 (DMS-273) was 57.9 µM (inactive).

Brc1cccc(/N=N/N2CCCC2)c1 was tested, and the GI50 (MDA-N) was > 100 µM (inactive).

In the case of O=P1(Oc2ccccc2)N=P(c2ccccc2)(c2ccccc2)C=C(c2ccc(Cl)cc2)N1 (stereo not drawn), the GI50 (MDA-N) is reported as 8.87 µM (inactive).

CCOc1ccc(NC(=O)CC2C(=O)Nc3ccccc3S2(=O)=O)cc1 (stereo not drawn) was tested, and the GI50 (SNB-78) was 90.4 µM (inactive), the GI50 (XF498) was 29.8 µM (inactive) and the GI50 (HOP-18) was > 100 µM (inactive). For the same molecule, the GI50 (DMS-114) was > 100 µM (inactive), the GI50 (LXFL 529) was > 100 µM (inactive) and the GI50 (RXF 631) was > 100 µM (inactive). For the same molecule, the GI50 (M19-MEL) was > 100 µM (inactive).

Clc1cccc(Cl)c1C1SCc2nc3cc4ccccc4cc3n21 (stereo not drawn) was tested, and the GI50 (MDA-N) was > 100 µM (inactive).

O=c1/c(=C/c2ccccc2[N+](=O)[O-])sc2nnc(-c3ccco3)n12 was tested, and the GI50 (SNB-78) was 25.7 µM (inactive), the GI50 (XF498) was 18.4 µM (inactive) and the GI50 (HOP-18) was 25.1 µM (inactive). For the same molecule, the GI50 (DMS-114) was 20 µM (inactive), the GI50 (LXFL 529) was 19 µM (inactive) and the GI50 (M19-MEL) was 19.5 µM (inactive). The GI50 (DMS-273) was 28.7 µM (inactive).

With CCn1c(=O)c2cn[nH]c2n(C)c1=O the GI50 (MDA-N) was > 100 µM (inactive).

For Nc1nc2c(C(=O)NCc3cccs3)nnn2c2cccc(Cl)c12, the GI50 (MDA-N) was > 100 µM (inactive).

In the case of C/C(=N/NC(=O)C[n+]1ccccc1)C(CN(CC(C)C)CC(C)C)C(=O)Nc1ccc(C)cc1C (stereo not drawn), the GI50 (DMS-114) is reported as > 100 µM (inactive), the GI50 (RXF 631) is reported as > 100 µM (inactive) and the GI50 (M19-MEL) is reported as > 100 µM (inactive).

With O=C(O)c1cc(C(=O)O)nc(C(=O)O)c1 the GI50 (MDA-N) was > 100 µM (inactive).

For COc1ccc(/C=C/C(=O)c2sc(NC(=S)NC(=O)c3ccccc3F)nc2C)cc1OC, the GI50 (SNB-78) was > 100 µM (inactive), the GI50 (HOP-18) was 22.8 µM (inactive) and the GI50 (DMS-114) was > 100 µM (inactive). For the same molecule, the GI50 (M19-MEL) was > 100 µM (inactive) and the GI50 (DMS-273) was > 100 µM (inactive).

In the case of COc1ccc(N(C)CN(C)c2nc(N(C)C)nc(N(C)C)n2)cc1, the GI50 (SNB-78) is reported as > 100 µM (inactive), the GI50 (HOP-18) is reported as > 100 µM (inactive) and the GI50 (DMS-114) is reported as > 100 µM (inactive). The GI50 (LXFL 529) was > 100 µM (inactive), the GI50 (M19-MEL) was > 100 µM (inactive) and the GI50 (DMS-273) was > 100 µM (inactive).

With CC(=O)Oc1cc(S(=O)(=O)Nc2n[nH]c(Nc3ccc(C)cc3)n2)c(S)cc1Cl the GI50 (MDA-N) was > 100 µM (inactive).

In the case of COC(=O)c1ccccc1C1CN=NC12Cc1c(ccc(C)c1C)C2=O (stereo not drawn), the GI50 (MDA-N) is reported as > 100 µM (inactive).

For CC(C)C1OC(/C=C/c2ccccc2)OCC1(C)C (stereo not drawn), the GI50 (MDA-N) was 36.3 µM (inactive).

Clc1ncnc2c1nc(C#Cc1ccccc1)n2C1CCCCO1 (stereo not drawn) was tested, and the GI50 (MDA-N) was 1.94 µM (inactive).

For Cc1c(C=C(C#N)C#N)c(=O)n(C)c(=O)n1C, the GI50 (MDA-N) was > 100 µM (inactive).

In the case of Cc1ccc(-c2nc3cc([N+](=O)[O-])ccc3[nH]2)cc1, the GI50 (MDA-N) is reported as > 100 µM (inactive).

With CO/C(=N\N=C\c1ccccc1F)c1ccncc1 the GI50 (MDA-N) was > 10 µM (inactive).

With c1ccc(C(CCN2CCCC2)c2ccccn2)cc1 (stereo not drawn) the GI50 (MDA-N) was > 100 µM (inactive).

In the case of COc1nc(C(=O)O)c(Cl)c(OC)c1Cl, the GI50 (DMS-114) is reported as > 100 µM (inactive) and the GI50 (M19-MEL) is reported as > 100 µM (inactive).

For N=C1c2ccccc2C(=O)c2c(NCCNCCO)ccc(O)c21, the GI50 (SNB-78) was 18.8 µM (inactive), the GI50 (HOP-18) was 11.5 µM (inactive) and the GI50 (DMS-114) was 3.93 µM (inactive). For the same molecule, the GI50 (LXFL 529) was 6.5 µM (inactive), the GI50 (M19-MEL) was 5.55 µM (inactive) and the GI50 (DMS-273) was 5.57 µM (inactive).

With COC(=O)c1ccccc1C1CN=NC12Cc1c(C)ccc(C)c1C2=O (stereo not drawn) the GI50 (MDA-N) was > 100 µM (inactive).

COC(=O)[C@]1(C)CCC[C@@]2(C)C1CCC1=C[C@@]3(C(C)C)CC[C@]12OO3 (stereo partly drawn) was tested, and the GI50 (SNB-78) was 54.3 µM (inactive), the GI50 (LXFL 529) was 23.2 µM (inactive) and the GI50 (RXF 631) was 22.6 µM (inactive). For the same molecule, the GI50 (M19-MEL) was 25.1 µM (inactive) and the GI50 (DMS-273) was 25.7 µM (inactive).

For CC1=C[C@H]([C@H]2C=C(C)C(C(N)=O)=CN2Cc2c(Cl)cccc2Cl)N(Cc2c(Cl)cccc2Cl)C=C1C(N)=O, the GI50 (MDA-N) was 48.9 µM (inactive).

CN(C)CCCc1c[nH]c2ccccc12 was tested, and the GI50 (MDA-N) was > 100 µM (inactive).

For COc1c(O)c2ccccc2c2cc(O)ccc12, the GI50 (SNB-78) was 15.5 µM (inactive), the GI50 (XF498) was 2.69 µM (inactive) and the GI50 (HOP-18) was 1.75 µM (inactive). For the same molecule, the GI50 (DMS-114) was 1.97 µM (inactive), the GI50 (LXFL 529) was 2.59 µM (inactive) and the GI50 (MDA-N) was 1.08 µM (active). The GI50 (M19-MEL) was 2.01 µM (inactive) and the GI50 (DMS-273) was 6.65 µM (inactive).
